From patent US20090221653A1, “7-(2-amino-1-hydroxy-ethyl)-4-hydroxybenzothiazol-2(3H)-one-derivatives as beta2 adrenoreceptor agonists” (AstraZeneca AB, priority 2005, published 2009) come the findings set out here.

Where a name gives a salt, the structure may show the parent alone.

The target in one experiment is T1, Adrenergic β2 (Homo sapiens, UniProt P07550).
T1 construct: endogenous in cells; host or cells: H292 cells
The experiment in a line: Alternative Adrenergic β2 Mediated cAMP Production in H292 cells (AlphaScreen cAMP detection). The settings on record: for β2 Int Act: fraction relative to the maximum activity determined for formoterol, 60 minutes incubation; for EC50: cAMP, test compounds incubated 60 minutes, 300 μM rolipram, read-out: β2 pEC50 (converted). In kind it is cell-based. The procedure: H292 cells were grown in 225 cm2 flasks incubator at 37° C., 5% CO2 in RPMI medium containing, 10% (v/v) FBS (foetal bovine serum) and 2 mM L-glutamine.
Adherent H292 cells were removed from tissue culture flasks by treatment with Accutase™ cell detachment solution for 15 minutes. Flasks were incubated for 15 minutes in a humidified incubator at 37° C., 5% CO2. Detached cells were re-suspended in RPMI media (containing 10% (v/v) FBS and 2 mM L-glutamine) at 0.05×10^6 cells per mL. 5000 cells in 100 μL were added to each well of a tissue-culture-treated 96-well plate and the cells incubated overnight in a humidified incubator at 37° C., 5% CO2. The culture media was removed and cells were washed twice with 100 μL assay buffer and replaced with 50 μL assay buffer (HBSS solution containing 10 mM HEPES pH7.4 and 5 mM glucose). […] Cells were incubated with rolipram for 10 minutes after which time test compounds were added and the cells were incubated for 60 minutes at room temperature. […] The reaction was stopped by removing supernatants, washing once with 100 μL assay buffer and replacing with 50 μL lysis buffer. The cell monolayer was frozen at −80° C. for 30 minutes (or overnight).
The concentration of cAMP (cyclic adenosine monophosphate) in the cell lysate was determined using AlphaScreen™ methodology. The frozen cell plate was thawed for 20 minutes on a plate shaker then 10 μL of the cell lysate was transferred to a 96-well white plate. 40 μL of mixed AlphaScreen™ detection beads pre-incubated with biotinylated cAMP, was added to each well and the plate incubated at room temperature for 10 hours in the dark. The AlphaScreen™ signal was measured using an EnVision spectrophotometer (Perkin-Elmer Inc.) with the recommended manufacturer's settings. cAMP concentrations were determined by reference to a calibration curve determined in the same experiment using standard cAMP concentrations. Concentration response curves for agonists were constructed and data was fitted to a four parameter logistic equation to determine both the pEC50 and Intrinsic Activity.

The target in experiment [1] is T2, recombinant human adrenergic beta 1 receptors (Homo sapiens, UniProt P08588).
T2 construct: purchased Euroscreen
The experiment can be described thus: Adrenergic β1 selectivity assay, inhibition of [125I]-Iodocyanopindolol binding. Particulars: membranes, [125I]-Iodocyanopindolol; read-out: β1 bind pIC50 (converted). The procedure:
Membranes containing recombinant human adrenergic beta 1 receptors were obtained from Euroscreen. These were diluted in Assay Buffer (50 mM HEPES, 1 mM EDTA, 120 mM NaCl, 0.1% gelatin, pH 7.4) to provide a final concentration of membranes that gave a clear window between maximum and minimum specific binding.
Assays were performed in U-bottomed 96-well polypropylene plates. […] Membranes were then added to achieve a final volume of 100 μL. The plates were incubated for 2 hours at room temperature and then filtered onto PEI coated GF/B filter plates, pre-soaked for 1 hour in Assay Buffer, using a 96-well plate Tomtec cell harvester. Five washes with 250 μL wash buffer (50 mM HEPES, 1 mM EDTA, 120 mM NaCl, pH 7.4) were performed at 4° C. to remove unbound radioactivity. The plates were dried then sealed from underneath using Packard plate sealers and MicroScint-O (50 μL) was added to each well. The plates were sealed (TopSeal A) and filter-bound radioactivity was measured with a scintillation counter (TopCount, Packard BioScience) using a 3-minute counting protocol.
(§1) Total specific binding (B0) was determined by subtracting the mean NSB from the mean maximum binding. NSB values were also subtracted from values from all other wells.

Experiment [2] addresses T3, recombinant human α1D receptor (Homo sapiens, UniProt P25100).
T3 construct: expressed in transfected cells; host or cells: HEK293
T3 sequence (P25100 1-572): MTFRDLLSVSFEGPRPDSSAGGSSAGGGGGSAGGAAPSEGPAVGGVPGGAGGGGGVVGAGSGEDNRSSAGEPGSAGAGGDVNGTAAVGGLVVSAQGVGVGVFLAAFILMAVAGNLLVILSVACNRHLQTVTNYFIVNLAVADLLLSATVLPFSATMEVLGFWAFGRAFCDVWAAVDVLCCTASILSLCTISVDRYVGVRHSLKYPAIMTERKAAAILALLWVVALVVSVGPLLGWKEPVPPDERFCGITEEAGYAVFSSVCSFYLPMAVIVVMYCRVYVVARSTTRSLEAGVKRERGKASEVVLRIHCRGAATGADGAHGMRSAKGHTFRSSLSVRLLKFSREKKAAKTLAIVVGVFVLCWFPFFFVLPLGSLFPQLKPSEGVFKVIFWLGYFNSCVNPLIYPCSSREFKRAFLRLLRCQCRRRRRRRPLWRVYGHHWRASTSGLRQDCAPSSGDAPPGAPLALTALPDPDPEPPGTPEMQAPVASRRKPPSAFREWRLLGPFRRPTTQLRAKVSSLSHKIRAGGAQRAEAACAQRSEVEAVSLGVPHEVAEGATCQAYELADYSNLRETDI
The experiment can be described thus: Adrenergic α1D selectivity assay, inhibition of [3H]-prazosin binding. The settings on record: HEK293 membranes, [3H]-prazosin 0.3 nM; read-out: α1 bind pIC50 (converted). The procedure:
Membranes were prepared from human embryonic kidney 293 (HEK293) cells expressing recombinant human α1D receptor. These were diluted in Assay Buffer (50 mM HEPES, 1 mM EDTA, 0.1% gelatin, pH 7.4) to provide a final concentration of membranes that gave a clear window between maximum and minimum specific binding.
Assays were performed in U-bottomed 96-well polypropylene plates. 10 μL [^3H]-prazosin (0.3 nM final concentration) and 10 μL of test compound (10× final concentration) were added to each test well. For each assay plate 8 replicates were obtained for [^3H]-prazosin binding in the presence of 10 μL vehicle (10% (v/v) DMSO in Assay Buffer; defining maximum binding) or 10 μL BMY7378 (10 μM final concentration; defining non-specific binding (NSB)). Membranes were then added to achieve a final volume of 100 μL. The plates were incubated for 2 hours at room temperature and then filtered onto PEI coated GF/B filter plates, pre-soaked for 1 hour in Assay Buffer, using a 96-well plate Tomtec cell harvester. Five washes with 250 μL wash buffer (50 mM HEPES, 1 mM EDTA, pH 7.4) were performed at 4° C. to remove unbound radioactivity. The plates were dried then sealed from underneath using Packard plate sealers and MicroScint-O (50 μL) was added to each well. The plates were sealed (TopSeal A) and filter-bound radioactivity was measured with a scintillation counter (TopCount, Packard BioScience) using a 3-minute counting protocol.
as §1

T2 sequence (P08588 whole entry): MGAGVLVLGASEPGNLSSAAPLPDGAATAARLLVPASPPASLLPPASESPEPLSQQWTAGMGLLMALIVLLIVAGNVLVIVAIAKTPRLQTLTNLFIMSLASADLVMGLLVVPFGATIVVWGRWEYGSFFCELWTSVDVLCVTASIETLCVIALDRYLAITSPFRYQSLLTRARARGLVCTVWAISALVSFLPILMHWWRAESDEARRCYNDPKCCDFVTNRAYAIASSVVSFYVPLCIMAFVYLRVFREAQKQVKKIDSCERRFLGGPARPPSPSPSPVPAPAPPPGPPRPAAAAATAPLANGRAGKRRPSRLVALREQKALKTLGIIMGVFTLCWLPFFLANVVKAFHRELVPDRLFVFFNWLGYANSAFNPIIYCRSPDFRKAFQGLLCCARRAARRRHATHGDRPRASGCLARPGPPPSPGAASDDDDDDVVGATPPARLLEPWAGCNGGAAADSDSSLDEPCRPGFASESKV
T1 sequence (P07550 whole entry): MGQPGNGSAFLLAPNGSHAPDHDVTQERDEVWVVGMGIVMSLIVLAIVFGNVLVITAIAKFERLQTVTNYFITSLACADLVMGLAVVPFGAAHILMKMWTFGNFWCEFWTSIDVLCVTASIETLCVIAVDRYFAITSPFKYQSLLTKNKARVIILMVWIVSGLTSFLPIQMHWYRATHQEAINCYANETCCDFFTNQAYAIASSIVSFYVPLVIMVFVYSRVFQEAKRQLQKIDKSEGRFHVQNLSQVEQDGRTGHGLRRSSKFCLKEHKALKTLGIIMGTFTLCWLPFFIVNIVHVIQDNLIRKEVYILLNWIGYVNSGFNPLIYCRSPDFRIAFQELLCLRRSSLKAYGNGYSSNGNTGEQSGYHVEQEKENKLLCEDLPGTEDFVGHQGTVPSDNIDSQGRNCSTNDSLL

As for `Cl.O=c1[nH]c2c(O)ccc([C@@H](O)CNCCCSCCOCCc3ccccc3)c2s1` [Example 9, 4-Hydroxy-7-{(1R)-1-hydroxy-2-[(3-{[2-(2-phenylethoxy)ethyl]thio}-propyl)amino]ethyl}-1,3-benzothiazol-2(3H)-one hydrochloride], the “β2 Int Act” value on Adrenergic β2 is given as 1.
As to `O=c1[nH]c2c(O)ccc([C@@H](O)CNCCSCCCNCCc3cccc(C(F)(F)F)c3)c2s1` [Example 18, 4-Hydroxy-7-{(1R)-1-hydroxy-2-[(2-{[3-({2-[3-(trifluoromethyl)phenyl]ethyl}amino)propyl]thio}ethyl)amino]ethyl}-1,3-benzothiazol-2(3H)-one], the IC50 in experiment [1] is 100 nM. Besides, the IC50 in experiment [2] was 251 nM. In addition, at Adrenergic β2, the EC50 was 3.16 nM and the “β2 Int Act” value amounted to 0.8.
Take `O=c1[nH]c2c(O)ccc([C@@H](O)CNCCCOCCOCCc3cccc4ccccc34)c2s1` [Example 7, 4-Hydroxy-7-{(1R)-1-hydroxy-2-[(3-{2-[2-(1-naphthyl)ethoxy]ethoxy}propyl)amino]ethyl}-1,3-benzothiazol-2(3H)-one]: in experiment [2], the IC50 is 631 nM. The “β2 Int Act” value at Adrenergic β2 turned out to be 1.1.
`Cl.O=c1[nH]c2c(O)ccc([C@@H](O)CNCCSCCCNCCc3ccccc3)c2s1` [Example 11, 4-Hydroxy-7-((1R)-1-hydroxy-2-{[2-({3-[(2-phenylethyl)amino]propyl}thio)ethyl]amino}ethyl)-1,3-benzothiazol-2(3H)-one hydrochloride]: the IC50 in experiment [1] was 251 nM; in experiment [2], 126 nM. For the same molecule, on Adrenergic β2, the “β2 Int Act” value is reported as 0.9.
Turning to `O=c1[nH]c2c(O)ccc([C@@H](O)CNCCSCCCNCCc3cccc(Cl)c3)c2s1` [Example 40, 7-[(1R)-2-({2-[(3-{[2-(3-Chlorophenyl)ethyl]amino}propyl)thio]ethyl}amino)-1-hydroxyethyl]-4-hydroxy-1,3-benzothiazol-2(3H)-one dihydrochloride], at Adrenergic β2, the EC50 is 1 nM and the “β2 Int Act” value was found to be 0.8.
Turning to `O=c1[nH]c2c(O)ccc([C@@H](O)CNCCSCCCNCCc3ccccc3Cl)c2s1` [Example 20, 7-[(1R)-2-({2-[(3-{[2-(2-Chlorophenyl)ethyl]amino}propyl)thio]ethyl}amino)-1-hydroxyethyl]-4-hydroxy-1,3-benzothiazol-2(3H)-one], the IC50 in experiment [2] was 25.1 nM. Also, the “β2 Int Act” value at Adrenergic β2 is 0.8.
With `CCOc1ccc(CCNCCCSCCNC[C@H](O)c2ccc(O)c3[nH]c(=O)sc23)cc1` [Example 16, 7-[(1R)-2-({2-[(3-{[2-(4-Ethoxyphenyl)ethyl]amino}propyl)thio]ethyl}amino)-1-hydroxyethyl]-4-hydroxy-1,3-benzothiazol-2(3H)-one], the IC50 in experiment [2] is 1580 nM. The “β2 Int Act” value at Adrenergic β2 turned out to be 0.7.
Regarding `O=c1[nH]c2c(O)ccc([C@@H](O)CNCCOCCCNCCc3cccc(Cl)c3)c2s1` [Example 36, 7-((1R)-2-{[2-(3-{[2-(3-Chlorophenyl)ethyl]amino}propoxy)ethyl]amino}-1-hydroxyethyl)-4-hydroxy-1,3-benzothiazol-2(3H)-one], the IC50 in experiment [1] is 100 nM. At Adrenergic β2, the “β2 Int Act” value is listed as 1.
Take `Cl.O=c1[nH]c2c(O)ccc([C@@H](O)CNCCCSCCCOCCc3ccccc3)c2s1` [Example 6, 4-Hydroxy-7-{(1R)-1-hydroxy-2-[(3-{[3-(2-phenylethoxy)propyl]thio}propyl)amino]ethyl}-1,3-benzothiazol-2(3H)-one hydrochloride]: in experiment [1], the IC50 was 3.98 nM. For the same molecule, the “β2 Int Act” value at Adrenergic β2 was found to be 0.9.
Regarding `O=c1[nH]c2c(O)ccc([C@@H](O)CNCCCOCCOCCc3ccccc3)c2s1` [Example 3, 4-Hydroxy-7-[(1R)-1-hydroxy-2-({3-[2-(2-phenylethoxy)ethoxy]propyl}amino)ethyl]-1,3-benzothiazol-2(3H)-one trifluoroacetate], on Adrenergic β2, the EC50 was 0.126 nM and the “β2 Int Act” value was determined as 0.9.
